In patent US20260297086A1, “CRYSTALLINE PROLYL HYDROXYLASE DOMAIN-CONTAINING PROTEIN (PHD) INHIBITOR AND USES THEREOF” (Insilico Medicine IP Limited, priority 2023, published 2026):

How the values were obtained:
[1] = target: PHD2 (Homo sapiens, UniProt Q9GZT9); assay: PHD2 Enzymatic Assay (AlphaScreen); format: biochemical; conditions: PHD2 enzyme, 30 min preincubation at RT
Experimental: Example 1: PHD2 Enzymatic Assay Procedure
Compound DMSO stock preparation: Compound 1 was reconstituted into 20 mM stock by DMSO.
Compound storage: Compound 1 in DMSO was stored at RT in a desiccator for short-term storage (up to 3 months).
• Reference Roxadustat (FG-4592) was 3-fold serial diluted from 400 μM for 10 doses in DMSO. • The compounds were 3-fold serial diluted from 400 μM for 10 doses in DMSO. • Prepared 200× positive control (400 μM, FG-4592) and 200× vehicle control (100% DMSO). • Centrifuged compound plates at 1000 rpm for 1 min.
• a) Transferred 40 nl compound dilutions into each well of assay plates using Echo 655; • b) Sealed the assay plate and centrifuge compound plates at 1000 rpm for 1 min. • c) Prepared and add 4 μL of the 2×PHD2 enzyme working solution to individual well of the assay plate. • d) Sealed the assay plate and centrifuge compound plates at 1000 rpm for 1 min. […]
• ALPHASCREEN signal (ALPcmpd) is calculated for each well • % Inhibition is calculated as follow:
[formula] • ALPpositive: The average ALP for the positive controls across the plate. • ALPvehicle: The average ALP for the negative controls across the plate. • Calculate IC50 and Plot effect-dose curve of compounds: • Calculated IC50 by fitting % inhibition values and log of compound concentrations to nonlinear regression (dose response−variable slope) with Graphpad 8.0. […]

[2] = system: HIF1α (Caco2 cells); assay: Caco2-HIF1α-HiBit assay; format: cell-based; conditions: Homo sapiens, Caco-2

Sequence of PHD2 (Q9GZT9 whole entry): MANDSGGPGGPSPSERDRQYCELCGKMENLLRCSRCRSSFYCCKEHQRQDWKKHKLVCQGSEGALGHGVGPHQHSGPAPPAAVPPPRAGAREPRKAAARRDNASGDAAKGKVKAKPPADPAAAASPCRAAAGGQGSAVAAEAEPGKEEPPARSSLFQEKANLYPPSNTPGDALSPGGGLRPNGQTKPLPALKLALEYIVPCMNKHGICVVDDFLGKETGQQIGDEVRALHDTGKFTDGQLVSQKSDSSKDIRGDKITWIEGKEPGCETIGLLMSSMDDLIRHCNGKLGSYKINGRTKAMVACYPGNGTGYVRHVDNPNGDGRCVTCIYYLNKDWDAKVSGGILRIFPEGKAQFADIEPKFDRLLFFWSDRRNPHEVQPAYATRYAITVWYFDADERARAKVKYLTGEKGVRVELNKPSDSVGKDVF

IC50 [1]: < 5 nM
EC50 [2]: < 2500 nM
Compound: CC(C)(C)OC(=O)N1CCN(c2ccc3c(O)c(C(=O)NCc4ccc(C#N)nc4)ncc3n2)CC1 [Compound 1, tert-butyl 4-(6-(((6-cyanopyridin-3-yl)methyl)carbamoyl)-5-hydroxy-1,7-naphthyridin-2-yl)piperazine-1-carboxylate]
